Read-outs that look alike come from different tables or passages of the source.
Legend:
human GIVA cPLA2 [1] = target: T1, human GIVA cPLA2 (Homo sapiens, UniProt P47712); assay: mixed micelle-based modified Dole assay, GIVA cPLA2 inhibition; assay type: biochemical; details: 0.091 mole fraction inhibitor in mixed micelles; n = 3; listed as GK187
T1 sequence (P47712 1-749): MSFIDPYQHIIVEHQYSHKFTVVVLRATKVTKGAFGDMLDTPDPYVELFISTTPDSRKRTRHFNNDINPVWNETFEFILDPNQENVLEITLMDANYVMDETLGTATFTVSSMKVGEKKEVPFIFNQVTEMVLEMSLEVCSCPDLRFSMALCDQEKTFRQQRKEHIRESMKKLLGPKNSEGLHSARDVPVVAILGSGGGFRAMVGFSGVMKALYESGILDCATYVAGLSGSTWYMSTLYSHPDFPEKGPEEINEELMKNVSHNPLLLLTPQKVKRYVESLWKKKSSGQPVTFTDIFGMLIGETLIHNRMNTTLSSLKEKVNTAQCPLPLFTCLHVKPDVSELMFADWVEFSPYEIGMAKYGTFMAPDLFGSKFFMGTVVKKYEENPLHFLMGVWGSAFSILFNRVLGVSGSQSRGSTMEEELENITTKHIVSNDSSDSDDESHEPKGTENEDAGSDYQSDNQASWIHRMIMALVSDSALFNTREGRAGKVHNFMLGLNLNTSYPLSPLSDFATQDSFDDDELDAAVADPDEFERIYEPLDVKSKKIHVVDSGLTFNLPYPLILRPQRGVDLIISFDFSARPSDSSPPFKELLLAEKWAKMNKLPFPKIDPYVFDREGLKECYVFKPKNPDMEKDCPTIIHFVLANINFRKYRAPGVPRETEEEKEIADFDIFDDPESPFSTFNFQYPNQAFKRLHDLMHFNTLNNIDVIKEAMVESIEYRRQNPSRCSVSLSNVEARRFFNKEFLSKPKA

human GV sPLA2 [2] = target: T2, human GV sPLA2 (Homo sapiens, UniProt P39877); assay: mixed micelle-based modified Dole assay, GV sPLA2 inhibition; assay type: biochemical; details: 0.091 mole fraction inhibitor in mixed micelles; n = 3
T2 sequence (P39877 21-138): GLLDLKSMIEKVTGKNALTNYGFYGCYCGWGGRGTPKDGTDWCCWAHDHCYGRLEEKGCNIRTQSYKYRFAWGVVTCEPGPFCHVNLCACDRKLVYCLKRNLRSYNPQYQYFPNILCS

human GVIA iPLA2 = target: T3, human GVIA iPLA2 (Homo sapiens, UniProt O60733); details: cited from earlier work
T3 sequence (O60733 1-806): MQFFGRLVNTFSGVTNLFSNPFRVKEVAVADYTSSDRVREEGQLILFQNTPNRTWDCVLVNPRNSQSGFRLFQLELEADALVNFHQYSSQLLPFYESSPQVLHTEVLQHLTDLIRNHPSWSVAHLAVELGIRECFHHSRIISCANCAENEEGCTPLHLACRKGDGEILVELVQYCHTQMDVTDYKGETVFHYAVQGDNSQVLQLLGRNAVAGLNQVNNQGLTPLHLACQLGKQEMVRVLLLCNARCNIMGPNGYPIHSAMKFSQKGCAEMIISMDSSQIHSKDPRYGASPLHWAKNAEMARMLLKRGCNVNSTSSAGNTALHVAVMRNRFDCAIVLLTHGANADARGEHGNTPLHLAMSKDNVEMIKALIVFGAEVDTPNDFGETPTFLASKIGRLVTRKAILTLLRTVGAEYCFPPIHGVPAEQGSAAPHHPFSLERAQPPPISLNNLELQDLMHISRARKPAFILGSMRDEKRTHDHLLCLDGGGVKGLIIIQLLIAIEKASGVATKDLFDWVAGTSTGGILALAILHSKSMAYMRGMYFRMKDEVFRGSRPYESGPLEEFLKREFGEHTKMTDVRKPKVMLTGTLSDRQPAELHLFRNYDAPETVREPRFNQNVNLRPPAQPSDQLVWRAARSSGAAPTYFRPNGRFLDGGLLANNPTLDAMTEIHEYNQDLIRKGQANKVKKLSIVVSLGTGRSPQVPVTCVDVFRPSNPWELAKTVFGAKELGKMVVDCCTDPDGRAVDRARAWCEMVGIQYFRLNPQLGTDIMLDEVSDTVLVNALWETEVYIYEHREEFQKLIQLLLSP

human GIVA cPLA2 [3] = target: T1, human GIVA cPLA2; details: 0.091 mole fraction inhibitor; cited from earlier work
human GV sPLA2 [4] = target: T2, human GV sPLA2; details: 0.091 mole fraction inhibitor; cited from earlier work

Structure (SMILES) | GIVA cPLA2 % Inhibition at 0.091 (human GIVA cPLA2 [1]) | GV sPLA2 % Inhibition at 0.091 (human GV sPLA2 [2]) | GVIA iPLA2 % Inhibition at 0.091 (human GVIA iPLA2; 0.091 mole fraction inhibitor) [%] | GVIA iPLA2 XI(50) (human GVIA iPLA2; mole fraction of inhibitor for 50% inhibition) [mole fraction] | GIVA cPLA2 % Inhibition at 0.091 (human GIVA cPLA2 [3]) | GV sPLA2 % Inhibition at 0.091 (human GV sPLA2 [4]) [%]
COc1ccc(CCCCC(=O)C(F)(F)C(F)(F)F)cc1 [6d, 1,1,1,2,2-Pentafluoro-7-(4-methoxyphenyl)heptan-3-one] | no significant inhibition | no significant inhibition |  |  |  | 
O=C(CCCCc1ccccc1)C(F)(F)C(F)(F)F [FKGK11] |  |  | 99.4 | 0.0014 ± 0.0001 | N.D. (N.D. signifies compounds with less than 25% inhibition (or no detectable inhibition)) | 28.0
